Patent publication US7915264B2, “Fused pyridine derivatives for use as vanilloid receptor antagonists for treating pain” (Novartis AG, priority 2001, dated 2011)
pIC50: −log10 of the molar value.

Tests used:
[1] = target: T1, human vanilloid receptor 1 (hVR1) ion channels (Homo sapiens, UniProt Q8NER1); assay: Fluorescence assay (calcium-sensitive dye) in CHO cells expressing human vanilloid receptor 1 ion channels, stimulated by capsaicin or low pH; assay type: cell-based; settings: in vitro, VR1 ion channel block
T1 construct: expressed in transfected cells; host or cells: CHO cells
T1 sequence (Q8NER1 whole entry): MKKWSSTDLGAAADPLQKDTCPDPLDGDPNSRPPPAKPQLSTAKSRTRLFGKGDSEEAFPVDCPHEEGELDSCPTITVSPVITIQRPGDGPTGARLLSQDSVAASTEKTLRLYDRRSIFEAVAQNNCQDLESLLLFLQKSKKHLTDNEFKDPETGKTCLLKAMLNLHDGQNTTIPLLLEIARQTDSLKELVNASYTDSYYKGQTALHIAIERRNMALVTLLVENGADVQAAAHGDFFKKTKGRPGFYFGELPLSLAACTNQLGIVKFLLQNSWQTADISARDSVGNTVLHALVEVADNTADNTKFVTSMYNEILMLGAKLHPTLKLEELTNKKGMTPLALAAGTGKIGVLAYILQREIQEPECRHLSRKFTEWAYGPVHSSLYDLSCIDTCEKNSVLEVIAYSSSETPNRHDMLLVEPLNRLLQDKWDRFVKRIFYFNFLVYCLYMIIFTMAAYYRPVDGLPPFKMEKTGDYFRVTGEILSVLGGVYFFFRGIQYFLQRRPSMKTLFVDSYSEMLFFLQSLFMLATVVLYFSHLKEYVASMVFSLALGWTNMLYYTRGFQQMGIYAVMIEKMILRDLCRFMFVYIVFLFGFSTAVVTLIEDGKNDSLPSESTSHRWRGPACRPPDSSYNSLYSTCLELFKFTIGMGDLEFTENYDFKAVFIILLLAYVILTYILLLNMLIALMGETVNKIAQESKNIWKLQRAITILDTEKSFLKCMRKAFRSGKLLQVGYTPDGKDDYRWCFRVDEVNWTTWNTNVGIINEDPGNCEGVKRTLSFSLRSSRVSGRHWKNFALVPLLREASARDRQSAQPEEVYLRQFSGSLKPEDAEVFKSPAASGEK
Description: Fluorescence assay: Cultures of Chinese Hamster Ovary (CHO) cells expressing human vanilloid receptor 1 ion channels are prepared according to standard protocols [McIntyre et al., British Journal of Pharmacology 132: 1084-1094 (2001)]. The activity of test compounds are investigated using a fluorescence assay utilising calcium sensitive dyes to measure changes in [Ca^2+]i. The cells are plated at a density of 25,000 per well on 96 well Costar black, clear bottomed plates cultured at 37° C. in 5% CO2 in MEM medium overnight. On the day of the assay, cells are incubated in either 2 μM fura-2/AM or 2 μM fura-6F (Molecular Probes) made up in assay buffer [Hank's Balanced Salt Solution (HBSS, Invitrogen) containing 10 mM N-2-(hydroxyethylpiperazine-N′-[2-ethanesulfonic acid) (HEPES), pH 7.4] containing 0.01% pluronic F-127 for 30 min at room temperature. […] The fluorescence is measured over 1 min at 4 s intervals using excitation wavelengths of 340 and 380 nm and emission of 520 nm. […] The ratio of fluorescence intensities following excitation at 340 and 380 nm is calculated for each time point. The agonist-evoked response is calculated as the mean of the ratios in the four time-points following stimulation minus the basal ratio.

[2] = target: rat VR1 (Rattus norvegicus, UniProt O35433); assay: Fluorescence assay, rat VR1; assay type: cell-based; settings: in vitro, VR1 ion channel block
Sequence of rat VR1 (O35433 whole entry): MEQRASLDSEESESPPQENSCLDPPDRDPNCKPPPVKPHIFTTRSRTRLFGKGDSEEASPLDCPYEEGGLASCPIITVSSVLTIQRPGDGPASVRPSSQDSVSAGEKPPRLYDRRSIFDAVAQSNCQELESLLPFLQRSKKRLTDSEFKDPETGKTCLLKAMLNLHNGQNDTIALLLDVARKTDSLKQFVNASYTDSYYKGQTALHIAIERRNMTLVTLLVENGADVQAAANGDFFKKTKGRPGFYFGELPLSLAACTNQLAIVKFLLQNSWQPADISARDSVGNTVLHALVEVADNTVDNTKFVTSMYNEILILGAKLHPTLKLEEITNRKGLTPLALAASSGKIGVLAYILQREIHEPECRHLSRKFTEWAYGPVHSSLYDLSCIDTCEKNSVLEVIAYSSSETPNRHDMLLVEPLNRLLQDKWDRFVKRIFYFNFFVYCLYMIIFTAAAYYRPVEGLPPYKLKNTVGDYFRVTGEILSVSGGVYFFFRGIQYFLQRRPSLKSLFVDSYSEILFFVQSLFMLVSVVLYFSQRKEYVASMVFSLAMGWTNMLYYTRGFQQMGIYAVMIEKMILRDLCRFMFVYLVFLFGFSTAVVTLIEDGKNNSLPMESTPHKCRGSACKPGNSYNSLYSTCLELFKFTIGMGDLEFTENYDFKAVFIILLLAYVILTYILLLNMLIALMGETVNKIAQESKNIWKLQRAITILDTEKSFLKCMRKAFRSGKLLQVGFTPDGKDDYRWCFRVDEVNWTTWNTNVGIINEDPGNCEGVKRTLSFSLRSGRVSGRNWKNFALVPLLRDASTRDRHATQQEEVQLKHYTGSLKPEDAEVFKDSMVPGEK

[3] = tested on: rat model of neuropathic pain; assay: Anti-hyperalgesic effects in a model of neuropathic pain in the rat (partial sciatic nerve ligation, paw pressure); assay type: in vivo; settings: single dose 0.3-30 mg/kg p.o. after establishment of hyperalgesia
Description: Test: Anti-Hyperalgesic Effects in a Model of Neuropathic Pain in the Rat
The agents of invention are potent and efficacious anti-hyperalgesic agents following oral administration in the following rat model of neuropathic pain. Peripheral neuropathy is induced by partial ligation of the left sciatic nerve. Mechanical hyperalgesia is assessed from paw withdrawal thresholds measured on the ipsilateral (ligated) and contralateral (non-ligated) hindpaws using standard paw pressure methods. Drug effects are studied 11-15 days post ligation. The mean paw withdrawal threshold±s.e.m. for the left (ligated) paw is compared to that of the right (non-ligated) paw.
The agents of invention are administered, e.g. orally in 20% cremophor/water in a volume of 1 ml. The post-drug percentage hyperalgesia values are obtained by comparison to the pre-drug value for the right (non-ligated) paw; this enables a true measure of the reduction in hyperalgesia to be obtained without the added complication of any drug effects on the right paw. […] The agents of invention produce a reversal of mechanical hyperalgesia at 0.1-100 mg/kg and show a rapid onset of activity with a long duration of action.

## CC(C)(C)c1nc2[nH]c(=S)[nH]c(=O)c2cc1-c1ccc(Cl)cc1 [Example 2, 7-.tert.-butyl-6-(4-chlorophenyl)-2-thioxo-2,3-dihydro-1.H.-pyrido[2,3-.d.]pyrimidin-4-one]
[1]
  pIC50: 7.19
[2]
  pIC50: 7.72
[3]
  duration of effect on paw withdrawal thresholds: at least 6 h
  effect on paw withdrawal thresholds: dose-dependently reduces paw withdrawal thresholds
